ChEMBL document CHEMBL6109164, “Discovery of Novel DDR1 Inhibitors through a Hybrid Virtual Screening Pipeline, Biological Evaluation and Molecular Dynamics Simulations” (ACS Med Chem Lett, 2025)
The source made the active and inactive calls. The rule behind the calls is not given here.

Key:
[1] = molecular target: Epithelial discoidin domain-containing receptor 1 (Homo sapiens) (UniProt Q08345); test: Binding affinity to DDR1 (unknown origin) at VAL624 residue assessed as occupancy relative to control
[2] = molecular target: Epithelial discoidin domain-containing receptor 1 (Homo sapiens) (UniProt Q08345); test: Binding affinity to DDR1 (unknown origin) at LYS655 residue assessed as occupancy relative to control
Z-138 = test: Cytotoxicity against human Z138 cells assessed as reduction in cell viability; format: functional, cell-based

Epithelial discoidin domain-containing receptor 1 (Homo sapiens), sequence (Q08345 whole entry, the tested form may be a part): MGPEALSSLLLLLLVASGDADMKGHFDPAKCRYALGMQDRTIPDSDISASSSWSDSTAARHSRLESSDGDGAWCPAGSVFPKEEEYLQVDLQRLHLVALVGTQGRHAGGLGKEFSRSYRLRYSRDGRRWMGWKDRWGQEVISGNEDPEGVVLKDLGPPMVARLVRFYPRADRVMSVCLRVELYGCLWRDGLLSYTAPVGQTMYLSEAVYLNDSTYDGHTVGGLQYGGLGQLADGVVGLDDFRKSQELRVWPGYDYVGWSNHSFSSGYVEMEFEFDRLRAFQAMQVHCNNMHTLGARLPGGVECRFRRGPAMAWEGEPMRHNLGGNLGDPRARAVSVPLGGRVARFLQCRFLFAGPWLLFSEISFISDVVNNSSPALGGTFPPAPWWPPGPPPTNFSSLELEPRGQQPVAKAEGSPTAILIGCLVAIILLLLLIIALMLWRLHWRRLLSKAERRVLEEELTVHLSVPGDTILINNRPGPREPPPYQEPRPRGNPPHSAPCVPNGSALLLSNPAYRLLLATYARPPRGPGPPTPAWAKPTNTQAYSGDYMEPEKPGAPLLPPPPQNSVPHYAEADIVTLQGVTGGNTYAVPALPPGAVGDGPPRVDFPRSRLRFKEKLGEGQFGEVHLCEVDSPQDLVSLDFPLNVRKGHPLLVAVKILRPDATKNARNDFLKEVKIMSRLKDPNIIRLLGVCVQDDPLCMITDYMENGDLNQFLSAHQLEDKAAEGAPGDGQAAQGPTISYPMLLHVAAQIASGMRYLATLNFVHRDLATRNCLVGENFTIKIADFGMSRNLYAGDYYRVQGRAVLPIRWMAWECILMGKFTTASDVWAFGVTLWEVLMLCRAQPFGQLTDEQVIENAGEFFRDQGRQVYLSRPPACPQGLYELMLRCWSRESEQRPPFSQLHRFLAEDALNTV

Occ [1]	Occ [2]	SMILES	Activity (Z-138)
82.8%	69.9%	CN1CCN(c2ccc(C(=O)Nc3n[nH]c4ccc(Cc5cc(F)cc(F)c5)cc34)c(NC3CCOCC3)c2)CC1	Active
		Cc1cc(Nc2cc(N3CCN(C)CC3)nc(Sc3ccc(NC(=O)C4CC4)cc3)n2)n[nH]1	Active
